Results from paper PMC6774960, “Design, synthesis and biological evaluation of a series of new resveratrol analogues as potential anti-cancer agents” (Royal Society Open Science, 2019).

Experiments:
[1] = MTT cytotoxicity test, LO2; format: cell-based, human; conditions: human, LO2 cells (normal human hepatocytes), average of three determinations
Method: (§1) Vero cells are non-tumorigenic cell lines and are important raw materials as the research and production of biological products. Vero cells show low tumorigenicity and had been approved for use in the production of human virus vaccines. Thus, Vero cells were chosen as a control for cytotoxicity. All compounds were evaluated for their cell toxicity against Vero and normal human hepatocytes cells line (LO2) using MTT assays.
(§2) The anti-proliferative and cytotoxicity activity was determined using MTT assay. Human cervical carcinoma HeLa cells, human hepatocellular carcinoma HepG2 cells, human lung carcinoma A549 cells were representative in the anti-proliferation assay, which were obtained from the Shanghai Institute of Cell Biology (Shanghai, China). Normal African green monkey kidney Vero cells were a gift from Dr Xiumiao He at Guangxi University for Nationalities. Normal human hepatocytes LO2 cells were a gift from Dr Xing Lin at Guangxi Medical University. The HepG2, Hela, LO2 and Vero cells were cultured in Dulbecco's modified Eagle's medium (DMEM, Gibco) and the A549 cells were cultured in RPMI1640 (Gibco), both media were supplemented with 10% fetal calf serum and antibiotics (100 IU ml^−1 penicillin, 100 IU ml^−1 streptomycin; Amresco).
(§3) Cells were seeded in 96-well microtiter plates at a density of 1 × 10^4 cells well^−1 and incubated with different concentrations of compound (6.25, 12.50, 25.00, 50.00 to 100.00 µM), cisplatin and paclitaxel in RPMI-1640 or DMEM at 37°C with 5% CO2. After 24 h, cell morphology was observed using a light microscope, and then 20 µl of MTT solution (5 mg ml^−1) was added to the well and incubated for 4 h, then cell survival was determined by measuring the optical density (OD) absorbance at a wavelength of 570 nm using an ELISA microplate reader. The inhibition rate (IR) following each compound treatment was determined by the following equation: IR (%) = (1 − ODexp/ODcon) × 100%, where ODexp and ODcon are the OD of the treated and untreated cells, respectively. Cisplatin and paclitaxel were used as positive control drugs.

[2] = MTT cytotoxicity test, Vero; format: cell-based, African green monkey; conditions: African green monkey, Vero cells (normal African green monkey kidney), average of three determinations
Method: as §1, §2, §3

[3] = test system: HepG2 cells; experiment: MTT anti-proliferation assay, HepG2; format: cell-based, human; conditions: Homo sapiens, HepG2, 24 h, average of three determinations
Method: (§4) The 22 synthesized resveratrol compounds were evaluated for anti-proliferative activities against three human cancer cell lines, including HepG2, A549 and HeLa cells, using 3-[4,5-dimethylthiazol-2-yl]-2,5 diphenyl tetrazolium bromide (MTT) assays. Paclitaxel, a well-known tubulin inhibitor, was used as a positive control. […] Therefore, the inhibitory activity of the compounds depended not only on the 2-position substitution of acrylic acid, but also on the 3-position substitution of acrylic acid.
as §2, §3

[4] = test system: HeLa cells; experiment: MTT anti-proliferation assay, HeLa; format: cell-based, human; conditions: Homo sapiens, HeLa, 24 h, average of three determinations
Method: The 22 synthesized resveratrol compounds were evaluated for anti-proliferative activities against three human cancer cell lines, including HepG2, A549 and HeLa cells, using 3-[4,5-dimethylthiazol-2-yl]-2,5 diphenyl tetrazolium bromide (MTT) assays. Paclitaxel, a well-known tubulin inhibitor, was used as a positive control.
as §2
After 24 h, cell morphology was observed using a light microscope, and then 20 µl of MTT solution (5 mg ml^−1) was added to the well and incubated for 4 h, then cell survival was determined by measuring the optical density (OD) absorbance at a wavelength of 570 nm using an ELISA microplate reader. […] Cisplatin and paclitaxel were used as positive control drugs.

[5] = test system: A549 cells; experiment: MTT anti-proliferation assay, A549; format: cell-based, human; conditions: Homo sapiens, A549, 24 h, average of three determinations
Method: as §4, §2, §3

| Structure (SMILES) | CC50 at 24 h [1] | CC50 at 24 h [2] | IC50 [3] | melting point | IC50 [4] | IC50 [5] |
| --- | --- | --- | --- | --- | --- | --- |
| COc1cc(C(=Cc2ccc(Cl)c(Cl)c2)C(=O)O)cc(OC)c1OC [compound a, 3-(3,4-dichlorophenyl)-2-(3,4,5-trimethoxyphenyl) acrylic acid] | 27 ± 1 µM | 28.2 ± 0.5 µM | 50 ± 4 µM | 233 to 235 °C | 27 ± 2 µM | 34 ± 2 µM |
| COc1cc(C(=Cc2c(Cl)cccc2Cl)C(=O)O)cc(OC)c1OC [compound b, 3-(2,6-dichlorophenyl)-2-(3,4,5-trimethoxyphenyl) acrylic acid] | 92 ± 2 µM | > 100 µM | 74 ± 4 µM | 217 to 218 °C | 32 ± 3 µM | 46 ± 3 µM |
| COc1cc(C(=Cc2ccc(Cl)cc2Cl)C(=O)O)cc(OC)c1OC [compound c, 3-(2,4-dichlorophenyl)-2-(3,4,5-trimethoxyphenyl) acrylic acid] | > 100 µM | 71 ± 2 µM | 30 ± 3 µM | 228 °C | 46 ± 3 µM | 30 ± 1 µM |
| COc1cc(C(=Cc2cc([N+](=O)[O-])ccc2Cl)C(=O)O)cc(OC)c1OC [compound d, 3-(2-chloro-5-nitrophenyl)-2-(3,4,5-trimethoxyphenyl) acrylic acid] | 93 ± 2 µM | > 100 µM | > 100 µM | 247 to 248 °C | 62 ± 3 µM | > 100 µM |
| COc1cc(C(=Cc2ccccc2OC(F)(F)F)C(=O)O)cc(OC)c1OC [compound e, 3-(2-(trifluoromethoxy)phenyl)-2-(3,4,5-trimethoxyphenyl) acrylic acid] | > 100 µM | 82 ± 2 µM | > 100 µM | 164 °C | 61 ± 3 µM | > 100 µM |
| COc1cc(C(=Cc2ccc(OC(F)(F)F)cc2)C(=O)O)cc(OC)c1OC [compound f, 3-(4-(trifluoromethoxy)phenyl)-2-(3,4,5-trimethoxyphenyl) acrylic acid] | > 100 µM | > 100 µM | 18.7 ± 0.9 µM | 208 °C | 20 ± 3 µM | 19 ± 2 µM |
| COc1cc(C(=Cc2cccc(OC(F)(F)F)c2)C(=O)O)cc(OC)c1OC [compound g, 3-(3-(trifluoromethoxy)phenyl)-2-(3,4,5-trimethoxyphenyl) acrylic acid] | > 100 µM | > 100 µM | 24 ± 2 µM | 156 to 157 °C | 73 ± 5 µM | 14 ± 4 µM |
| COc1cc(C(=Cc2cccc(C(F)(F)F)c2)C(=O)O)cc(OC)c1OC [compound h, 3-(3-(trifluoromethyl)phenyl)-2-(3,4,5-trimethoxyphenyl) acrylic acid] | 75 ± 4 µM | > 100 µM | 47 ± 4 µM | 162 to 164 °C | 26 ± 4 µM | 32 ± 5 µM |
| COc1cc(C(=Cc2ccccc2C(F)(F)F)C(=O)O)cc(OC)c1OC [compound i, 3-(2-(trifluoromethyl)phenyl)-2-(3,4,5-trimethoxyphenyl) acrylic acid] | > 100 µM | > 100 µM | 42 ± 2 µM | 160 to 162 °C | 41 ± 4 µM | 32 ± 2 µM |
| COc1cc(C(=Cc2ccc(C(F)(F)F)cc2)C(=O)O)cc(OC)c1OC [compound j, 3-(4-(trifluoromethyl)phenyl)-2-(3,4,5-trimethoxyphenyl) acrylic acid] | > 100 µM | > 100 µM | 56.66 ± 0.02 µM | 259 °C | 19 ± 2 µM | 18 ± 3 µM |
| COc1cc(C(=Cc2cc(C(F)(F)F)ccc2Cl)C(=O)O)cc(OC)c1OC [compound k, 3-(2-chloro-5-(trifluoromethyl)phenyl)-2-(3,4,5-trimethoxyphenyl) acrylic acid] | 88 ± 2 µM | 71 ± 2 µM | 100 ± 0.8 µM | 258 °C | > 100 µM | > 100 µM |
| COc1cc(C(=Cc2ccc(OC)c(OC)c2Cl)C(=O)O)cc(OC)c1OC [compound l, 3-(2-chloro-3,4-dimethoxyphenyl)-2-(3,4,5-trimethoxyphenyl) acrylic acid] | 64 ± 2 µM | > 100 µM | > 100 µM | 171 to 173 °C | 89 ± 4 µM | > 100 µM |
| COc1cc(C(=Cc2cc(Cl)ccc2[N+](=O)[O-])C(=O)O)cc(OC)c1OC [compound m, 3-(5-chloro-2-nitrophenyl)-2-(3,4,5-trimethoxyphenyl) acrylic acid] | > 100 µM | > 100 µM | > 100 µM | 167 to 169 °C | 60 ± 1 µM | 34 ± 2 µM |
| COc1cc(C(=Cc2c(Cl)ccc(Cl)c2Cl)C(=O)O)cc(OC)c1OC [compound n, 3-(2,3,6-trichlorophenyl)-2-(3,4,5-trimethoxyphenyl) acrylic acid] | 77 ± 1 µM | 63 ± 2 µM | 79 ± 4 µM | 203 to 204 °C | 20 ± 2 µM | 27.2 ± 0.9 µM |
| COc1ccc(C(=Cc2c(Cl)cccc2Cl)C(=O)O)cc1 [compound o, 3-(2,6-dichlorophenyl)-2-(4-methoxyphenyl) acrylic acid] | > 100 µM | > 100 µM | 48 ± 5 µM | 319 to 320 °C | 10 ± 2 µM | 21.3 ± 0.7 µM |
| COc1ccc(C(=Cc2ccc(OC(F)(F)F)cc2)C(=O)O)cc1 [compound p, 2-(4-methoxyphenyl)-3-(4-(trifluoromethoxy)phenyl) acrylic acid] | 84 ± 2 µM | 93 ± 3 µM | 7.7 ± 0.3 µM | 159 to 160 °C | 5.1 ± 0.8 µM | 14 ± 2 µM |
| COc1ccc(C(=Cc2cccc(C(F)(F)F)c2)C(=O)O)cc1 [compound q, 2-(4-methoxyphenyl)-3-(3-(trifluoromethyl)phenyl) acrylic acid] | 98 ± 2 µM | > 100 µM | 19 ± 2 µM | 192 to 194 °C | 14 ± 1 µM | 16 ± 3 µM |
| COc1ccc(C(=Cc2ccc(OC)c(OC)c2Cl)C(=O)O)cc1 [compound t, 3-(2-chloro-3,4-dimethoxyphenyl)-2-(4-methoxyphenyl) acrylic acid] | 87 ± 2 µM | 85 ± 1 µM | 93 ± 3 µM | 202 °C | 24 ± 2 µM | > 100 µM |
| COc1ccc(C(=Cc2c(Cl)ccc(Cl)c2Cl)C(=O)O)cc1 [compound u, 2-(4-methoxyphenyl)-3-(2,3,6-trichlorophenyl) acrylic acid] | 35 ± 1 µM | 38.6 ± 0.7 µM | > 100 µM | 174 °C | > 100 µM | > 100 µM |
| COc1ccc(C=C(C(=O)O)c2cc(C)cc(C)c2)cc1 [compound v, 2-(3,5-dimethylphenyl)-3-(4-methoxyphenyl) acrylic acid] | 96 ± 6 µM | > 100 µM | 100 ± 1 µM | 198 to 200 °C | 51.25 ± 0.01 µM | 61 ± 3 µM |
| CC(=O)O[C@H]1C(=O)[C@@]2(C)[C@H]([C@H](OC(=O)c3ccccc3)[C@]3(O)C[C@H](OC(=O)[C@H](O)[C@@H](NC(=O)c4ccccc4)c4ccccc4)C(C)=C1C3(C)C)[C@]1(OC(C)=O)CO[C@@H]1C[C@@H]2O [paclitaxel, reference compound] | > 100 µM | 98 ± 1 µM | 0.39 ± 0.03 µM |  | 0.7 ± 0.1 µM | 0.17 ± 0.03 µM |
